# Measured values reported in publication PMC9927457 (Microbiology Spectrum, 2023).
# Columns and labels:
# CYP2C8 = biological target: T1, CYP2C8 (Homo sapiens, UniProt P10632); test: biochemical
# T1 sequence (P10632 1-490): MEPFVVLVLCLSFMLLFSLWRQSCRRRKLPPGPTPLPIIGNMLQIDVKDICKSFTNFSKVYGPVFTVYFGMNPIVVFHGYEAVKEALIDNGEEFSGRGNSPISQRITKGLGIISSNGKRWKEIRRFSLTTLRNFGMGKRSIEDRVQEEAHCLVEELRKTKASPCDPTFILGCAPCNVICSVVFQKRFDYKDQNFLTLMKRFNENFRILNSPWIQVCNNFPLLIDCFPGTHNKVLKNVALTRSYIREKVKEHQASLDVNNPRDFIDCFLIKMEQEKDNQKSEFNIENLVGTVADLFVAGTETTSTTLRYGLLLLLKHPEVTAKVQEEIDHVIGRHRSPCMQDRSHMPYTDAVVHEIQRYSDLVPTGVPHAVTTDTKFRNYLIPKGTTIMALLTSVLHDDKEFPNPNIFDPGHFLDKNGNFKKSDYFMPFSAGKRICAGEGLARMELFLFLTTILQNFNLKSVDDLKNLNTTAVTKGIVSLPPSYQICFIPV
# Protocol: (§1) Table S4. Inhibition of cytochrome P450s.
# (§2) Compounds were tested for inhibition of P450s using the enzyme substrate pairs and conditions noted. IC50s (µM) were calculated. Control P450 inhibitors were included for each isoform.
# (§3) For each compound, the analytical method was developed as follows. Analyte signal was optimized for each compound by ESI positive or negative ionization mode. An MS2 scan or an SIM scan was used to optimize fragmenter voltage and a product ion analysis was used to identify the best fragment for analysis. The collision energy was optimized using a product ion or MRM scan. An ionization ranking was assigned indicating the compound’s ease of ionization. Samples […]
# (§4) 1200 HPLC and a CTC PAL chilled autosampler, all controlled by MassHunter software (Agilent).
# (§5) After separation on a C18 reverse phase HPLC column (Agilent Zorbax StableBond 3.5µm, 2.1 x 30 mm) using an acetonitrile -water gradient system, peaks were analyzed by mass spectrometry (MS) using ESI ionization in MRM mode.
# (§6) (1 picture or pasted object on this page, not shown here)
# (§7) Serial dilutions of a 10 mM stock solution were prepared in acetonitrile:DMSO (9:1). The final DMSO concentration was < 0.2%. Compounds were incubated with human liver microsomes in the presence of 2 mM NADPH in 100 mM potassium phosphate (pH 7.4) containing 5 mM magnesium chloride and a probe substrate, in a 200 µl assay final volume in duplicate. The probe substrate concentrations including bupropion (CYP2B6), amodiaquine (CYP2C8), tolbutamide (CYP2C9), mephenytoin (CYP2C19), dextromethorphan (CYP2D6) and midazolam/testosterone […]
# (§8) After incubation at 37 °C, reactions were terminated by addition of methanol containing internal standard (propranolol) for analytical quantification. The quenched samples were kept on ice for 10 min and centrifuged at 4 °C for 10 min. The supernatant was removed and the probe substrate metabolite was analyzed by LC-MS/MS (Agilent Technologies Triple Quad LC/MS). A decrease in the formation of the metabolite compared to vehicle control
# CYP2C19 = CYP2C19 (Homo sapiens, UniProt P33261); test: biochemical
# CYP2C19, sequence (P33261 whole entry): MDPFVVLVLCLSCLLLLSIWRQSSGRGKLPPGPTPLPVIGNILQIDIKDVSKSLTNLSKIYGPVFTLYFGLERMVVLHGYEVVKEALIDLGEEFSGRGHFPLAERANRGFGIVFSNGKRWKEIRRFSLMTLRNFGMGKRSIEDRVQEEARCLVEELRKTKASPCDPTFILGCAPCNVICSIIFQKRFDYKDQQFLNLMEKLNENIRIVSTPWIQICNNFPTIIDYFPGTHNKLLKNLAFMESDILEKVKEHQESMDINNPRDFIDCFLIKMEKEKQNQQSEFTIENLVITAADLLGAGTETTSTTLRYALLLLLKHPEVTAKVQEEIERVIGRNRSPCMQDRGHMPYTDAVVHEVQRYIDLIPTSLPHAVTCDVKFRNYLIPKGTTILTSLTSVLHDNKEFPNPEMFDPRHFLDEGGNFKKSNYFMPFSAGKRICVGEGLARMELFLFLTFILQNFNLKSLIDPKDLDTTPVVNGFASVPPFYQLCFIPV
# Protocol: as §1, §2, §3, §4, §5, §6, §7, §8
# [1] = Microsomal metabolic stability; conditions: human, pH 7.4; for half-life at 1 µM: liver microsomes; for microsomal CLint at 1 µM: microsomes
# Protocol: (§9) Permeability was measured across Caco-2 cells cultured in a Millipore 96-well Caco-2 plate. For apical to basolateral (A→B) permeability, 10 μM compound was added to the apical (A) side and amount of permeation was determined on the basolateral (B) side; for basolateral to apical (B→A) permeability, the compound was added to the B side and the amount of permeation was determine on the A side. Time points were taken at 2 h.
# Table S3. Metabolic stability. Metabolic stability was measured using human liver microsomes. […]
# CYP2D6 = CYP2D6 (Homo sapiens, UniProt P10635); test: biochemical
# CYP2D6, sequence (P10635 whole entry): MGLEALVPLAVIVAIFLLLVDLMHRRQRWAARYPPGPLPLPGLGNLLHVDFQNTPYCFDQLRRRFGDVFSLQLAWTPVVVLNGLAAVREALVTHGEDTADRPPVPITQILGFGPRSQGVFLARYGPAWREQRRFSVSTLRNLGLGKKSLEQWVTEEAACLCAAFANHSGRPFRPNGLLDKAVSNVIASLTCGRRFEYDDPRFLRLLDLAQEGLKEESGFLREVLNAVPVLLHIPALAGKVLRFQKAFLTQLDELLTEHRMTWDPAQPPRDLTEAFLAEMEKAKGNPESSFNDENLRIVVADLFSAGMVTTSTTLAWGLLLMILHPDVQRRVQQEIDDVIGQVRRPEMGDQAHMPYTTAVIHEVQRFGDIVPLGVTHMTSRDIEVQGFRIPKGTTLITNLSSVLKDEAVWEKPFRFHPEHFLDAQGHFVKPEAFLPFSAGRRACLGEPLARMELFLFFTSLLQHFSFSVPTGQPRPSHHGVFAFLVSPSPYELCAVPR
# Protocol: as §1
# (§10) Compounds were tested for inhibition of P450s using the enzyme substrate pairs and conditions noted. IC50s (µM) were calculated. Control P450 inhibitors were included for each isoform. […]
# as §4, §5, §7, §8
# CYP3A4 = CYP3A4 (Homo sapiens, UniProt P08684); test: Cytochrome P450 inhibition; assay type: in vitro ADME; conditions: liver microsomes
# CYP3A4, sequence (P08684 2-503): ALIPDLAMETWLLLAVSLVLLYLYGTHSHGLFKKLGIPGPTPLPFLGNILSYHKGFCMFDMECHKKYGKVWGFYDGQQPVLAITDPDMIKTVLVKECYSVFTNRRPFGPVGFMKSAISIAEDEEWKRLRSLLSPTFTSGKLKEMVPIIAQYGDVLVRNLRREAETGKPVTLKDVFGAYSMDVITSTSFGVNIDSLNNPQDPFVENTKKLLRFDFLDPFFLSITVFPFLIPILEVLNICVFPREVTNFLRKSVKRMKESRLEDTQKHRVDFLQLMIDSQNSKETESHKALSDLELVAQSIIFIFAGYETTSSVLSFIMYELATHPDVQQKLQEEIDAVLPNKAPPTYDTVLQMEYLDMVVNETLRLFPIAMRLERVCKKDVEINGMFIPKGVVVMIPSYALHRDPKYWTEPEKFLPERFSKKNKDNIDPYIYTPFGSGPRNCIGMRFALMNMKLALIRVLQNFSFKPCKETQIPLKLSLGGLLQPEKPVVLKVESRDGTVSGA
# Protocol: as §1, §2, §3, §4, §5, §6, §7, §8
# in vitro = conditions: human; for Papp A→B at 2 h, 10 µM / Papp B→A at 2 h, 10 µM / efflux ratio at 2 h, 10 µM: Caco-2
# Protocol: as §9
# (§11) Table S2. Permeability. Permeability was measured using Caco-2 cells after 1 and 2 hours incubation with compound. (A→B) is Apical to Basolateral; (B→A) is Basolateral to Apical. Data is expressed as permeability (10-6 cm s-1). dQ/dt is rate of permeation, C0 is initial concentration […]
# (§12) Article Duration direction value replicate replicate mean recovery
# Caco-2 cells = test: Caco-2 permeability
# Protocol: as §9, §11, §12
# CYP2B6 = biological target: T2, CYP2B6 (Homo sapiens, UniProt P20813); test: Cytochrome P450 inhibition
# T2 sequence (P20813 1-491): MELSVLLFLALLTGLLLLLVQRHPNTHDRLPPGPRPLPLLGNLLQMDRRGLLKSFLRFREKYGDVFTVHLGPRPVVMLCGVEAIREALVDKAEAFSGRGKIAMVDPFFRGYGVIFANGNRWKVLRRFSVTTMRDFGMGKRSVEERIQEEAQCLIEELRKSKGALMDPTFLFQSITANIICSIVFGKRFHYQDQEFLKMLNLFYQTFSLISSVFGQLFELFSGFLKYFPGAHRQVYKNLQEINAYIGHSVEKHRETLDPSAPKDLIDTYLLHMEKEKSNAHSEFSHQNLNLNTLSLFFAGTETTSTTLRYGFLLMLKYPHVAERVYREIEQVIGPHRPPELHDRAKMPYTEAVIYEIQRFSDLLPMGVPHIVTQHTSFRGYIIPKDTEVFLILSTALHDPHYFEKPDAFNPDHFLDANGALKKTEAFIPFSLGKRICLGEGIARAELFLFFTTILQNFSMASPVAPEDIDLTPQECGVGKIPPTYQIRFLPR
# Protocol: as §1, §2, §3, §4, §5, §6, §7, §8
# CYP2C9 = CYP2C9 (Homo sapiens, UniProt P11712); test: biochemical
# CYP2C9, sequence (P11712 whole entry): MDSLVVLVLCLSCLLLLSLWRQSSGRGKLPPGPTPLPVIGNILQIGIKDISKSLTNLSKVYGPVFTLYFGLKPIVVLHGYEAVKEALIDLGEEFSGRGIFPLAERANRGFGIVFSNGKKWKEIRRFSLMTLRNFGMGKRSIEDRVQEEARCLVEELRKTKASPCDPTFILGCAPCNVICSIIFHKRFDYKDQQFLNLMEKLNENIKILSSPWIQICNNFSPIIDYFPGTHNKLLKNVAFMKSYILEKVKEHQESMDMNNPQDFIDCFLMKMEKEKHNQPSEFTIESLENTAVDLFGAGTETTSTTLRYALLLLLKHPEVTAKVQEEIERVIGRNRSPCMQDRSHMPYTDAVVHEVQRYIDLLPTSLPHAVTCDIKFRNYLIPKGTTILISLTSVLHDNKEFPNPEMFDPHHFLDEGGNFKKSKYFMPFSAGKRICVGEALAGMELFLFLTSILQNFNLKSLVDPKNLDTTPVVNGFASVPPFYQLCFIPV
# Protocol: as §1, §10, §7, §8
# [2] = system: M. tuberculosis strain under expressing LepB (LepB-UE); test: microbe, parasite or virus in culture; assay type: cell-based, Mycobacterium tuberculosis; conditions: for MIC: Mycobacterium tuberculosis, 120 h
# [3] = Plasma protein binding (Rapid Equilibrium Dialysis); assay type: in vitro ADME, human; conditions: human; for fraction unbound at 4 h, 5 µM: plasma
# Protocol: Molecule fraction fraction Post-Assay
# Table S5. Plasma protein binding
# Protein binding was measured in human plasma using Rapid Equilibrium Dialysis (RED) devices (Pierce) according to the manufacturers’ instructions; 5 µM compounds in plasma were dialysed against PBS for 4 h at 37C. Compounds were detected by LC-MS/MS in plasma and PBS
# [4] = system: M. tuberculosis wild-type strain; test: MIC against wild-type M. tuberculosis; assay type: cell-based, Mycobacterium tuberculosis; conditions: concentration required to inhibit growth by 90%, 5 days culture; for MIC: Mycobacterium tuberculosis, 120 h, read-out: MIC Wild type
# HepG2 cells = test: HepG2 cytotoxicity; assay type: cell-based, human; conditions: Homo sapiens, HepG2, 72 h, 3 days exposure, CellTiter-Glo
# Protocol: HepG2 cells were used to measure eukaryotic cytotoxicity. Viability of HepG2 was measured using CellTiter-Glo reagent (Promega) after 3 days of exposure to compounds. […] Staurosporine controls (maximum inhibition) and a staurosporine dose response were included on every plate.
# [5] = biological target: SPase activity in M. tuberculosis H37Rv cell membrane fractions (Mycobacterium tuberculosis, UniProt P9WKA1); test: Inhibition of secretion (SPase activity) in membrane fractions; assay type: biochemical; conditions: fluorogenic peptide substrate 2 μM; 4 h, 37 °C
# SPase activity in M. tuberculosis H37Rv cell membrane fractions, sequence (P9WKA1 whole entry): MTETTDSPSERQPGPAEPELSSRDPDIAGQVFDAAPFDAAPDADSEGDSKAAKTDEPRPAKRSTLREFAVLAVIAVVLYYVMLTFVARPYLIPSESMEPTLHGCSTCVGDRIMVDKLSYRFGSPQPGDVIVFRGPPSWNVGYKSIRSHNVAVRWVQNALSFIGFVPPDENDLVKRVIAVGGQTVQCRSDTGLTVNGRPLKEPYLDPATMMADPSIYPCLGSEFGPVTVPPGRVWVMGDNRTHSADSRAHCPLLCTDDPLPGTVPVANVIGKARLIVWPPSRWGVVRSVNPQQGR
# RAW 264.7 macrophages = test: Cytotoxicity against infected macrophages; assay type: cell-based, murine; conditions: Mus musculus; infected RAW264:7 cells, 72 h; read-out: IC50 Macrophage
# Protocol: Murine RAW 264.7 macrophages (ATCC TIB-71) were infected with M. tuberculosis DsRed (DREAM8) ([29]) as described at a multiplicity of infection of 1 for 24 h, washed, harvested, and dispensed into 384-well plates ([30]). Infected macrophages were exposed to compounds for 72 h; cell nuclei were stained with SYBR green I. Plates were imaged with an ImageXpress Micro High Content Screening System (Molecular Devices) using a ×4 objective and FITC and Texas Red channels. MetaXpress was used to determine the integrated intensity of bacteria or macrophages. […] Isoniazid and staurosporine controls (maximum inhibition) and dose responses were included on every plate.
# [6] = Mean plasma fraction Unbound Fuplasma
SMILES,IC50 (CYP2C8) [µM],IC50 (CYP2C19) [µM],half-life at 1 µM [1] [min],microsomal CLint at 1 µM [1] [µL/min/mg],IC50 (CYP2D6) [µM],"IC50 at 10 min (CYP3A4; pH 7.4, probe midazolam) [µM]","IC50 at 10 min (CYP3A4; pH 7.4, probe testosterone) [µM]","Papp A→B at 2 h, 10 µM (in vitro) [×10⁻⁶ cm/s]","Papp B→A at 2 h, 10 µM (in vitro) [×10⁻⁶ cm/s]","efflux ratio at 2 h, 10 µM (in vitro)","dQ/dt (rate of permeation), mean (Caco-2 cells; A→B, assay duration 1 hr)","dQ/dt (rate of permeation), mean (Caco-2 cells; A→B, assay duration 2 hr)","dQ/dt (rate of permeation), mean (Caco-2 cells; B→A, assay duration 1 hr)","dQ/dt (rate of permeation), mean (Caco-2 cells; B→A, assay duration 2 hr)",IC50 (CYP2B6) [µM],MIC [2] [µM],"fraction unbound at 4 h, 5 µM ([3]; Mean plasma fraction Bound)",MIC [4] [µM],IC50 (HepG2 cells) [µM],IC50 [5] [µM],other results
"CCCCNC(=S)Nc1nc2ccccc2o1 [Molecule 12, 1-(benzo[d]oxazol-2-yl)-3-butylthiourea]",> 20,12.7,11,218,> 20,> 20,> 20,4.9,5.8,1.2,3.4E-05,3.2E-05,2.7E-05,3.0E-05,> 20,23 to 32,0.002,23 to 32,21 ± 19,> 200,"IC50 (CYP2C9): > 20 µM; MIC LepB-UE [2]: 32 ± 11 µM; recovery at 4 h, 5 µM [3]: 80.1%; fraction unbound at 4 h, 5 µM [3, 6]: 0.002; MIC Wild type [4]: 23 ± 9.0 µM"
"CCCCNC(=S)Nc1nc(-c2ccccc2)co1 [Molecule 23, 1-butyl-3-(4-phenyloxazol-2-yl)thiourea]",–,–,–,–,–,–,–,–,–,–,–,–,–,–,–,10 to 11,–,10 to 11,32 ± 4,> 200,IC50 (RAW 264.7 macrophages): 30 ± 6.4 µM; MIC LepB-UE [2]: 10 ± 2.0 µM; MIC Wild type [4]: 11 ± 4.0 µM
"COCCCNC(=S)Nc1nc2ccccc2s1 [Molecule 24, 1-(benzo[d]thiazol-2-yl)-3-(3-methoxypropyl)thiourea]",> 20,> 20,8.2,282,> 20,> 20,> 20,17,15,0.87,1.1E-04,8.8E-05,8.0E-05,1.1E-04,> 20,58 ± 1,0.055,65 ± 21,65 ± 60,–,"recovery at 2 h, 10 μM (in vitro; Caco-2, recovery): 54%; IC50 (CYP2C9): > 20 µM; recovery at 4 h, 5 µM [3]: 76.5%; fraction unbound at 4 h, 5 µM [3, 6]: 0.055"
"S=C(NCCc1ccccc1)Nc1nc2ccccc2s1 [Molecule 26, 1-(benzo[d]thiazol-2-yl)-3-phenethylthiourea]",–,–,–,–,–,–,–,–,–,–,–,–,–,–,–,8 ± 3,0.055,> 200,8 ± 6,> 200,IC50 (RAW 264.7 macrophages): 1.4 ± 0.2 µM
